Results taken from ChEMBL document CHEMBL4665818, “Calvatianone, a Sterol Possessing a 6/5/6/5-Fused Ring System with a Contracted Tetrahydrofuran B-Ring, from the Fruiting Bodies of Calvatia nipponica” (J Nat Prod, 2020).
Activity calls are given as the source filed them. The rule behind the calls is not given here.

Assays:
Format in all cases: functional, cell-based
MCF7 [1] = assay: Cytotoxicity against human MCF7 cells assessed as reduction in cell viability at 100 nM after 24 hrs in presence of ER antagonist ICI 182,780 by MTT assay
MCF7 [2] = assay: Cytotoxicity against human MCF7 cells assessed as reduction in cell viability <= 100 uM after 24 hrs by MTT assay; conditions: dose microM <=100, time 24.0 hrs
MCF7 [3] = assay: Cytotoxicity against human MCF7 cells assessed as 17beta-estradiol-induced reduction in cell viability at 200 uM after 24 hrs by MTT assay
MCF7 [4] = assay: Cytotoxicity against human MCF7 cells assessed as 17beta-estradiol-induced reduction in cell viability at 100 uM after 24 hrs by MTT assay

Row | SMILES | Activity (MCF7 [1]) | Activity (MCF7 [2]) | Activity (MCF7 [3]) | Activity (MCF7 [4])
1 | CC(C)[C@@H](C)/C=C/[C@@H](C)[C@H]1CC[C@H]2[C@]3(O)C=CC4=CC(=O)CC[C@]4(C)[C@H]3CC[C@]12C | Active | Active | Active | 
2 | CC(C)[C@@H](C)/C=C/[C@@H](C)[C@H]1CC[C@@H]2[C@]1(C)CC[C@H]1[C@]23C=C[C@]2(C[C@@H](O)CC[C@]12C)OO3 | Active | Active |  | Active
3 | CC(C)[C@@H](C)/C=C/[C@@H](C)[C@H]1CC[C@@H]2[C@]1(C)CC=C1[C@]23C=C[C@]2(C[C@@H](O)CC[C@]12C)OO3 | Active | Active |  | 
4 | CC(C)[C@@H](C)/C=C/[C@@H](C)[C@H]1CCC(=O)[C@]23CC(=O)[C@@H]4CC(=O)CC[C@]4(C)[C@H]2CC[C@]13C | Active | Active |  | 
5 | COC(=O)C[C@]12OC3=CC(=O)CC[C@]3(C)[C@H]1CC[C@]1(C)[C@@H]([C@H](C)/C=C/[C@H](C)C(C)C)CC[C@H]12 | Active | Active |  | 
